The subject of one data set is hEPI-NCSC. The experiment in a line: Differentiation of hEPI-NCSC into Schwann cells. It is filed as cell-based, human. The procedure:
hEPI-NCSC were seeded at 2,500-5,000 cells per CELLstart™-coated 35-mm culture plate and cultured at 36.8° C., 5% CO2 and 5% O2. At differentiation Day minus 3 (D-3), cells were placed in XP medium, which is NeuroCult XF medium (Stem Cell Technologies, Grenoble, France Cat# 05761) supplemented with 10 ng/ml rhFGF2 (R&D Systems, Abingdon, UK Cat# 233-FB), 20 ng/ml rhEGF (R&D Systems Cat# 236-EG), 1× ITS+3 (Sigma, Poole, UK Cat# 1-2771), 1% (v/v) FBS (HyClone, Thermo Fisher, Cramlington, UK Cat# SH30070.02), 1× GlutaMAX (Invitrogen, Cat# 35050-038), 1× Penicillin/Streptomycin (Sigma Cat# P0781) and 2.5 μg/ml Amphotericin B (Sigma Cat# A2942).
The cells in XP medium were treated with 500 ng/ml recombinant human sonic hedgehog (C2411) N-terminus (rhSHH) and 500 nM CHIR99021 for two days. At differentiation Day −1, the cells were subcultured. Cells were detached with TrypLE Select, centrifuged, and plated in XP medium at a density of 30,000 cells per 35 mm culture plate and 1,000 cells per poly-D-lysine and laminin-coated 13-mm diameter glass coverslip. The next day (differentiation Day 0), cells were cultured in Alpha-modified MEM in the presence of 10% FBS and 1 mM β-mercaptoethanol (βME) for 24 hours, which was followed by treatment with 35 ng/ml all-trans-retinoic acid according to the method of Dezawa et al (2001). At differentiation Day 3, the FBS concentration was reduced to 1%. Starting at differentiation Day 0, 10 μM SB431542 was added to the culture medium. Retinoic acid and SB431542 remained in the culture medium throughout the culture period. At Day 3, 10 ng/ml rhFGF2, 5 ng/ml recombinant human PDGF-BB (rhPDGF-BB), 5 μM forskolin, 200 ng/ml recombinant human neuregulin-1 (rhNRG) were added to the culture medium. The culture medium was exchanged every 48 hours.
At Day 0 of differentiation, cells were treated for 24 hours with β-mercaptoethanol, and all-trans-retinoic acid was added on differentiation Day 1 according to the method of Dezawa et al (2001). Neither the three-day treatment with retinoic acid, nor five days of exposure to retinoic acid were sufficient for differentiating hEPI-NCSC into Schwann cells as judged by cell morphology and marker expression. […] At Day 0, SB431542, an inhibitor of transforming growth factor-beta 1 (TGFβ1) activin receptor-like kinases (ALKs), was also added to the culture medium (FIG. 1). […] On Day 3, FGF2, PDGF-BB, forskolin, and neuregulin-1 were added.

For data set [1], the system named is endogenous Schwann cells (non-neuronal cells) of dorsal root ganglia (DRG) explants. The experiment in a line: Removal of non-neuronal cells from DRG explants. It is filed as cell-based, rodent. The following applies: for removal of endogenous Schwann cells from DRG explants: rodent DRG explants, camptothecin 20 μM three times for 48 hours each, data not shown. The procedure: (§1) Mice ([C57BL/6-TgN(ACTbEGFP)]Osb]; ‘green mice’) (Okabe et al, 1997) and rats were handled in accordance to protocols approved by the Animal Care Committee of Newcastle University (project licence 60/3876). Whole mount DRG explants from E15.5 Wistar rat embryos were dissected as described by Päiväläinen et al. (2008) and Liu et al. (2011). Dissociated DRG cultures from adult ‘green’ mice were prepared according to Malin et al (2007) and Johnson et al (2001). To remove non-neuronal cells, DRG explants were treated with camptothecin (20 μM) three times for 48 hours each, on Days 2-5, 6-8, and 13-15.
(§2) Co-cultures of hEPI-NCSC derived Schwann cells and rodent dorsal root ganglia (DRG) explants were prepared by first treating the DRG explants with camptothecin to eliminate non-neuronal cells. […] Neuronal toxicity of camptothecin has been documented previously (Bhanu and Kondapi, 2010).
Anti-human nuclear antibody immunofluorescence confirmed that all P-zero immunoreactive Schwann cells were of human origin (FIG. 7A-7C; pale blue fluorescence in original).

The test system of data set [2] is large diameter sensory neurons. The experiment in a line: Neuronal toxicity in DRG explants. It counts as cell-based, rodent. How it is done:
as §1, §2

The next data set deals with SAPK2/p38 (Homo sapiens, UniProt Q16539). The following applies: inhibitor of CK1 and ALK5; cited from earlier work.
Chain of SAPK2/p38 (Q16539 whole entry): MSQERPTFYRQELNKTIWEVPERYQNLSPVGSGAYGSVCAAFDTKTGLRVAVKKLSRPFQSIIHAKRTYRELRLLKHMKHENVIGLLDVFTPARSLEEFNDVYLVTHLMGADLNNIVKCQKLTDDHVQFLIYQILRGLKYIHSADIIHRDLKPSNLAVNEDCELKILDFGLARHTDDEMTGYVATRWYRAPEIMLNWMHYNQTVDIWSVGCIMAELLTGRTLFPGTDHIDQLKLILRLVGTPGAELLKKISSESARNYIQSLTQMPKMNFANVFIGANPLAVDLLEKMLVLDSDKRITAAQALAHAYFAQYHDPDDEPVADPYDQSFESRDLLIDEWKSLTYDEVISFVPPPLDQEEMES

In the case of `NC(=O)c1ccc(-c2nc(-c3ccc4c(c3)OCO4)c(-c3ccccn3)[nH]2)cc1` [SB 431542, 4-[4-(1,3-benzodioxol-5-yl)-5-(2-pyridinyl)-1H-imidazol-2-yl]benzamide], the “effect on differentiation into Schwann cells” value in the data set on hEPI-NCSC (10 μM throughout the differentiation period) is on record as “facilitated differentiation”.
Take `CC[C@@]1(O)C(=O)OCc2c1cc1n(c2=O)Cc2cc3ccccc3nc2-1` [camptothecin]: the “removal of endogenous Schwann cells from DRG explants” value in data set [1] is on record as “efficiently removed endogenous Schwann cells”. For the same compound, the “non-neuronal cells in treated DRG explants” value in data set [1] (whole DRG explants from E15.5 rat embryos, camptothecin 20 μM) is on record as “clear of non-neuronal cells”. Besides, the “toxicity to sensory neurons” value in data set [2] was “selectively toxic to large diameter sensory neurons”.
As for `NC(=O)c1ccc(-c2nc(-c3ccc4c(c3)OCCO4)c(-c3ccccn3)[nH]2)cc1` [D 4476, 4-[4-(2,3-Dihydro-1,4-benzodioxin-6-yl)-5-(2-pyridinyl)-1H-imidazol-2-yl]benzamide], the “selectivity over SAPK2/p38” value on SAPK2/p38 is listed as “greater than 20 fold”.
Turning to `CC1=C(/C=C/C(C)=C/C=C/C(C)=C/C(=O)O)C(C)(C)CCC1` [Retinoic acid, all-trans-retinoic acid], the “deleterious effects to the cells” value with hEPI-NCSC (35 ng/ml in the differentiation medium throughout the culture period) is on record as “without any detectable deleterious effects to the cells”. Further, the “Schwann cell differentiation, judged by cell morphology and marker expression” value in the data set with hEPI-NCSC (retinoic acid treatment for 3 days) and with hEPI-NCSC (retinoic acid treatment for 5 days (data not shown)) was “not conducive to highly efficient Schwann cell differentiation” in each case.
Take `Nc1ccn([C@@H]2O[C@H](CO)[C@@H](O)[C@@H]2O)c(=O)n1` [cytosine arabinoside]: the “removal of endogenous Schwann cells from DRG explants” value in data set [1] was “did not”.
